{"source": "paper PMC8560754", "about": "“Bridging the gap between in silico and in vivo by modeling opioid disposition in a kidney proximal tubule microphysiological system” (Scientific Reports, 2021)", "key": {"[1]": {"test": "Transport of morphine and M6G in the vascularized proximal tubule MPS (VPT-MPS)", "type": "in vitro ADME, human", "settings": "human, with probenecid (1 mM) and tetraethylammonium (1 mM), read-out: Permeability", "method": "(§1) The inner chamber of dual-channel MPS devices (Duplo, Fig. 1) (https://www.nortisbio.com/) was dried, filled with 6 mg/mL of rat tail collagen I, and left overnight to allow the collagen I matrix to solidify. The mandrels of the MPS platforms were then removed, leaving two hollow channels through the collagen I matrix. The PTEC channel was coated with a 5 µg/mL mouse collagen IV to facilitate human PTECs adhesion. Cultures of primary kidney epithelial cells were subjected to trypsin digestion to obtain single cell suspensions. The cells were counted and resuspended with PTECs culture media at a concentration of 20 × 10^6 cells/mL and 2–2.5 µL were injected into the collagen IV-coated channel. Cells were allowed to attach for 3 h before starting perfusion at a rate of 1.0 µL/min. A 1.0 µL/min perfusion of DMEM/F12 media containing ITS-A, 50 nM hydrocortisone, penicillin–streptomycin and amphotericin B was then initiated. Following 6 days under these culture conditions, the epithelial tubule was established and perfusion to the channel was stopped for a brief period. The parallel vacant channel was equilibrated with EGM-2 media containing 2% FBS for 2 h at 1.0 µL/min. Then, HUVECs (passages 5–10) were seeded into the equilibrated channel and allowed to attach for 30 min to establish an endothelial vessel. Flow to both channels was resumed at 1.0 µL/min with both channels receiving their respective culture medium. The day after seeding HUVEC, VPT-MPS were used for transport experiments. Prior to the beginning of experiments, a visual inspection under light microscope was performed to confirm complete (100%) coverage of both HUVEC vessel and PTEC tubule, respectively.\n(§2) The flow rate of flow through both channels was set at 1 µL/min. Effluents from the vessel and the tubule were collected every 2 h, and drug concentrations in the samples were determined LC/MS/MS. Transport experiments were conducted across 3 different donors. Effluent measurements were extended out to 24 h in order to reach steady-state levels in solute output."}, "[2]": {"test_system": "human primary proximal tubular epithelial cells (PTEC) tubule in VPT-MPS", "test": "Transport of morphine and M6G in the vascularized proximal tubule MPS (VPT-MPS)", "type": "in vitro ADME", "settings": "for CLint,sec: VPT-MPS derived intrinsic secretion clearance; for CLsecretion, each proximal subsegment S1, S2, and S3: clearance value of each proximal subsegment; for CLsecretion, each proximal subsegment S1, S2, and S3 / CLsecretion: scaled up from VPT-MPS; for CLsecretion: unbound intrinsic kidney active secretion clearance at proximal tubule, total; for CLapp, passive diffusion / CLapp, active secretion: one representative donor; for CLapp, passive diffusion / Concentration in endothelial cell / Efflux rate into lumen / CLapp, active secretion: mean ± SD; for Concentration in endothelial cell / Efflux rate into lumen: representative donor of Fig 2", "method": "as §1, §2"}, "[3]": {"settings": "ref www.drugbank.ca; cited from earlier work"}, "[4]": {"test": "Bidirectional transport across PTECs monolayers in conventional 2D Transwell", "type": "in vitro ADME, human", "settings": "human; for Papp at 1.5 h, 1 µM: PTECs permeability study data used for CLr prediction; for Papp A→B at 1.5 h, 1 µM / Papp B→A at 1.5 h, 1 µM: Inhibitor (-), 1.5 hour incubation; for Papp A→B at 1.5 h, 1 µM: read-out: Papp Apical to Basal; for Papp B→A at 1.5 h, 1 µM: read-out: Papp Basal to Apical", "method": "(§3) PTECs were seeded on polyester membrane HTS 24-well Transwell^TM inserts at 0.5-1 ×10^5 cells/well and cultured for 7-10 days until confluency. Transepithelial electrical resistance\n(§4) (TEER) across PTECs monolayers was monitored by an EVOM meter from World Precision Instruments (Berlin, Germany). TEER values were normalized to culture surface areas of Transwell^TM inserts. Wells with TEER reading from 25-150 ohm∙cm^2 were used for experiments.\n(§5) Samples were collected from basal (for apical to basal transport) or apical (for basal to apical transport) insert and analyzed by LC/MS/MS. Concentrations were used to determine apparent permeability (Papp) by using the following equation: […]"}, "PTECs monolayers": {"test_system": "PTECs monolayers", "test": "Bidirectional transport across PTECs monolayers in conventional 2D Transwell", "type": "in vitro ADME, human", "settings": "for CLint, secretion: considered as zero since no active secretion was observed in 2D Transwell; for Papp A→B / Papp B→A: Inhibitor (-), 1.5 hour incubation; for Papp A→B: read-out: Papp Apical to Basal; for Papp B→A: read-out: Papp Basal to Apical", "method": "as §3, §4, §5"}, "[5]": {"settings": "human, cited from earlier work"}, "[6]": {"test": "Bidirectional transport across MDCK monolayers in conventional 2D Transwell", "type": "in vitro ADME", "settings": "dog, Inhibitor (-), 1.5 hour incubation", "source_text": "as §5"}, "[7]": {"settings": "blood-to-plasma ratio; cited from earlier work"}, "[8]": {"test": "Morphine-M6G parent-metabolite full body PBPK model", "design": "species or system human", "settings": "hepatic clearance; systemic clearance minus renal clearance"}, "[9]": {"settings": "fraction of morphine metabolism to M6G; cited from earlier work"}}, "note": "Read-outs that look alike come from different tables or passages of the source. Marks after values point to notes of the source that are not given here.", "data": [{"smiles": "CN1CC[C@]23c4c5ccc(O)c4O[C@H]2[C@@H](O[C@@H]2O[C@H](C(=O)O)[C@@H](O)[C@H](O)[C@H]2O)C=C[C@H]3[C@H]1C5", "note": "[M6G, morphine-6-glucuronide]", "values": [{"measurement": "Papp at 24 h, 1 µM", "setting": "[1]; Donor1, VPT-MPS", "value": "25.9 ± 28.5", "unit": "×10⁻⁶ cm/s"}, {"measurement": "Papp at 24 h, 1 µM", "setting": "[1]; Donor2, VPT-MPS", "value": "9.74 ± 11.1", "unit": "×10⁻⁶ cm/s"}, {"measurement": "Papp at 24 h, 1 µM", "setting": "[1]; Donor3, VPT-MPS", "value": 41.8, "unit": "×10⁻⁶ cm/s"}, {"measurement": "Papp at 24 h, 1 µM", "setting": "[1]; PBPK model parameter, experimentally determined using VPT-MPS", "value": 23.8, "unit": "×10⁻⁶ cm/s"}, {"measurement": "decrease in intrinsic clearance by transporter inhibitors", "setting": "[2]; 1 mM probenecid and 1 mM tetraethylammonium, average of three donors", "value": 63.6, "unit": "%"}, {"measurement": "CLint,sec", "setting": "[2]; Donor1", "value": "15.6 ± 10.5", "unit": "µL/h/MPS"}, {"measurement": "CLint,sec", "setting": "[2]; Donor2", "value": "1.29 ± 1.09", "unit": "µL/h/MPS"}, {"measurement": "CLint,sec", "setting": "[2]; Donor3", "value": 22.9, "unit": "µL/h/MPS"}, {"measurement": "CLsecretion, each proximal subsegment S1, S2, and S3", "setting": "[2]", "value": 14.5, "unit": "L/h"}, {"measurement": "CLint, active secretion, range between PTECs donors", "setting": "[2]; three donors", "value": "1.29–22.9 µL/h/VPT-MPS"}, {"measurement": "CLsecretion", "setting": "[2]", "value": 43.5, "unit": "L/h"}, {"measurement": "CLapp, passive diffusion", "setting": "[2]; with inhibitor", "value": "1.92±2.02", "unit": "μL/hr/MPS"}, {"measurement": "Concentration in endothelial cell", "setting": "[2]; with inhibitor", "value": "639 ± 34", "unit": "nM"}, {"measurement": "Efflux rate into lumen", "setting": "[2]; with inhibitor", "value": "0.0191 ± 0.0192", "unit": "pmol/min/MPS"}, {"measurement": "CLapp, active secretion", "setting": "[2]; without inhibitor", "value": "7.90±3.86", "unit": "μL/hr/MPS"}, {"measurement": "Concentration in endothelial cell", "setting": "[2]; without inhibitor", "value": "640 ± 58", "unit": "nM"}, {"measurement": "Efflux rate into lumen", "setting": "[2]; without inhibitor", "value": "0.110 ± 0.043", "unit": "pmol/min/MPS"}, {"measurement": "pKa (base)", "setting": "[3]", "value": "9.12^b"}, {"measurement": "Papp at 1.5 h, 1 µM", "setting": "[4]; Donor3", "value": 40.1, "unit": "×10⁻⁶ cm/s"}, {"measurement": "Papp at 1.5 h, 1 µM", "setting": "[4]; Donor5", "value": 28.6, "unit": "×10⁻⁶ cm/s"}, {"measurement": "Papp at 1.5 h, 1 µM", "setting": "[4]; Donor6", "value": 40.1, "unit": "×10⁻⁶ cm/s"}, {"measurement": "Papp A→B at 1.5 h, 1 µM", "setting": "[4]; Donor2", "value": 58, "unit": "×10⁻⁶ cm/s"}, {"measurement": "Papp B→A at 1.5 h, 1 µM", "setting": "[4]; Donor2", "value": 54.6, "unit": "×10⁻⁶ cm/s"}, {"measurement": "Papp A→B at 1.5 h, 1 µM", "setting": "[4]; Donor3", "value": "40.1 ± 7.5", "unit": "×10⁻⁶ cm/s"}, {"measurement": "Papp B→A at 1.5 h, 1 µM", "setting": "[4]; Donor3", "value": "24.9 ± 14.2", "unit": "×10⁻⁶ cm/s"}, {"measurement": "Papp A→B at 1.5 h, 1 µM", "setting": "[4]; Donor4", "value": 22.5, "unit": "×10⁻⁶ cm/s"}, {"measurement": "Papp B→A at 1.5 h, 1 µM", "setting": "[4]; Donor4", "value": 12.2, "unit": "×10⁻⁶ cm/s"}, {"measurement": "Papp A→B at 1.5 h, 1 µM", "setting": "[4]; Donor5", "value": "28.6 ± 1.6", "unit": "×10⁻⁶ cm/s"}, {"measurement": "Papp B→A at 1.5 h, 1 µM", "setting": "[4]; Donor5", "value": "28.6 ± 2.1", "unit": "×10⁻⁶ cm/s"}, {"measurement": "Papp A→B at 1.5 h, 1 µM", "setting": "[4]; Donor6", "value": 55.6, "unit": "×10⁻⁶ cm/s"}, {"measurement": "Papp B→A at 1.5 h, 1 µM", "setting": "[4]; Donor6", "value": 42.2, "unit": "×10⁻⁶ cm/s"}, {"measurement": "CLint, secretion", "setting": "PTECs monolayers; Donor2", "value": 0, "unit": "µL/h"}, {"measurement": "CLint, secretion", "setting": "PTECs monolayers; Donor3", "value": 0, "unit": "µL/h"}, {"measurement": "CLint, secretion", "setting": "PTECs monolayers; Donor5", "value": 0, "unit": "µL/h"}, {"measurement": "CLint, secretion", "setting": "PTECs monolayers; Donor6", "value": 0, "unit": "µL/h"}, {"measurement": "CLr,observed", "setting": "[5]", "value": "9.20–14.3[20],[21] L/h"}, {"measurement": "CLr,observed", "setting": "[5]; ref 5,6 (supplement)", "value": "9.20-14.3 ^5,6 L/hr"}, {"measurement": "Papp A→B at 1.5 h, 1 µM", "setting": "[6]; read-out: Papp Apical to Basal", "value": 3.86, "unit": "×10⁻⁶ cm/s"}, {"measurement": "Papp B→A at 1.5 h, 1 µM", "setting": "[6]; read-out: Papp Basal to Apical", "value": "1.53 ± 0.17", "unit": "×10⁻⁶ cm/s"}, {"measurement": "B/P", "setting": "[7]", "value": "0.55^e"}]}, {"smiles": "CN1CC[C@]23c4c5ccc(O)c4O[C@H]2[C@@H](O)C=C[C@H]3[C@H]1C5", "note": "[Morphine, reference compound]", "values": [{"measurement": "CLsecretion, each proximal subsegment S1, S2, and S3", "setting": "[2]", "value": 13.1, "unit": "L/h"}, {"measurement": "CLsecretion", "setting": "[2]", "value": 39.3, "unit": "L/h"}, {"measurement": "CLapp, passive diffusion", "setting": "[2]; with inhibitor", "value": "2.09±1.58", "unit": "μL/hr/MPS"}, {"measurement": "CLapp, active secretion", "setting": "[2]; without inhibitor", "value": "6.98±3.94", "unit": "μL/hr/MPS"}, {"measurement": "CLh", "setting": "[8]", "value": "75.3^i L/h"}, {"measurement": "B/P", "setting": "[7]", "value": "1.08^e"}, {"measurement": "fm,M6G", "setting": "[9]", "value": "0.1^k"}]}, {"smiles": "Nc1ccc(C(=O)NCC(=O)O)cc1", "note": "[[^3H] PAH, para-aminohippuric acid, reference compound]", "values": [{"measurement": "active transport in 2D Transwell", "setting": "PTECs monolayers; 2D culture, probe substrate of OAT1 and OAT3", "value": "negligible active transport"}, {"measurement": "Papp A→B", "setting": "PTECs monolayers; Donor2", "value": 72.4, "unit": "×10⁻⁶ cm/s"}, {"measurement": "Papp B→A", "setting": "PTECs monolayers; Donor2", "value": 69.6, "unit": "×10⁻⁶ cm/s"}, {"measurement": "Papp A→B", "setting": "PTECs monolayers; Donor3", "value": 31.7, "unit": "×10⁻⁶ cm/s"}, {"measurement": "Papp B→A", "setting": "PTECs monolayers; Donor3", "value": 23, "unit": "×10⁻⁶ cm/s"}, {"measurement": "Papp A→B", "setting": "PTECs monolayers; Donor6", "value": 71.7, "unit": "×10⁻⁶ cm/s"}, {"measurement": "Papp B→A", "setting": "PTECs monolayers; Donor6", "value": 67.3, "unit": "×10⁻⁶ cm/s"}]}]}
